Patent US20070128217A1 (priority 2003, published 2007)

Key:
[1] = system: antibodies in sera from SARS patients (sera 1a, 1b, 2, 6, 37, 62, London, SARS-yellow, SARS-green); assay type: binding, human; set-up: Binding of serum 6 to linear peptides of protein X1 of SARS-CoV Urbani / Binding of serum 37 to linear peptides of protein X1 of SARS-CoV Urbani / Binding of serum 6 to looped/cyclic peptide (PEPSCAN-ELISA) / Binding of serum 37 to looped/cyclic peptide (PEPSCAN-ELISA) / Binding of serum 37 to looped/cyclic peptides of protein X1 of SARS-CoV Urbani / Binding of serum 6 to linear peptides of protein X2 / Binding of serum 37 to linear peptides of protein X2 / Binding of serum 37 to looped/cyclic peptides of protein X2 of SARS-CoV Urbani / Binding of serum 6 to linear peptides of protein M of SARS-CoV Urbani / Binding of serum 37 to linear peptides of protein M of SARS-CoV Urbani / Binding of serum 6 to looped/cyclic peptides of protein M of SARS-CoV Urbani / Binding of serum 37 to looped/cyclic peptides of protein M of SARS-CoV Urbani / Binding of serum 6 to linear peptides of protein X3 of SARS-CoV Urbani / Binding of serum 37 to linear peptides of protein X3 of SARS-CoV Urbani / Binding of serum 37 to looped/cyclic peptides of protein X3 of SARS-CoV Urbani / Binding of serum 6 to linear peptides of protein X4 of SARS-CoV Urbani / Binding of serum 37 to linear peptides of protein X4 of SARS-CoV Urbani / Binding of serum 37 to looped/cyclic peptides of protein X4 of SARS-CoV Urbani / Binding of serum 6 to linear peptides of protein X5 of SARS-CoV Urbani / Binding of serum 37 to linear peptides of protein X5 of SARS-CoV Urbani / Binding of serum 37 to looped/cyclic peptides of protein X5 of SARS-CoV Urbani / Binding of serum 6 to linear peptides of protein N of SARS-CoV Urbani / Binding of serum 37 to linear peptides of protein N of SARS-CoV Urbani / Binding of serum 6 to linear peptide (PEPSCAN-ELISA) / Binding of serum 1a to looped/cyclic peptides of protein N of SARS-CoV Urbani / Binding of serum 1b to looped/cyclic peptides of protein N of SARS-CoV Urbani / Binding of serum 2 to looped/cyclic peptides of protein N of SARS-CoV Urbani / Binding of serum 6 to looped/cyclic peptides of protein N of SARS-CoV Urbani / Binding of serum 37 to looped/cyclic peptides of protein N of SARS-CoV Urbani / Binding of serum 62 to looped/cyclic peptides of protein N of SARS-CoV Urbani / Binding of serum London to looped/cyclic peptides of protein N of SARS-CoV Urbani / Binding of serum SARS-green to looped/cyclic peptides of protein N of SARS-CoV Urbani: unit not given here
[2] = system: rabbit serum obtained by immunizing a rabbit with the SARS-CoV strain Frankfurt 1; assay type: binding; set-up: Binding of a rabbit serum to linear peptides / Binding of a rabbit serum to looped peptides / Rabbit serum linear peptides / Rabbit serum looped peptides / Binding of a rabbit serum to linear peptides of protein N of SARS-CoV Urbani (Rabbit serum linear peptides) / Binding of a rabbit serum to looped/cyclic peptides of protein N of SARS-CoV Urbani (Rabbit serum looped peptides): unit not given here
[3] = system: control sera (pooled serum of ten healthy LUMC hospital workers; commercial negative donor pooled serum from the Dutch bloodbank); assay type: binding, human; set-up: Binding of Control serum LUMC to linear peptides / Binding of Control serum Blood-bank to linear peptides / Binding of Control serum LUMC to looped peptides / Binding of Control Serum Blood-Bank to Looped peptides / Binding of Control serum LUMC to linear peptides of the protein M of SARS-CoV Urbani / Binding of Control serum Blood-bank to linear peptides of the protein M of SARS-CoV Urbani / Binding of Control serum LUMC to looped peptides of the protein M of SARS-CoV Urbani / Binding of Control Serum Blood-Bank to Looped peptides of the protein M of SARS-CoV Urbani: unit not given here

## AAFRDVLVVLNKRTN
[1]
  Binding of serum 1a to linear peptides of protein X5 of SARS-CoV Urbani: 0.6
  Binding of serum 1a to looped/cyclic peptides of protein X5 of SARS-CoV Urbani: 0.6
  Binding of serum 1b to linear peptides of protein X5 of SARS-CoV Urbani: 0.6
  Binding of serum 1b to looped/cyclic peptides of protein X5 of SARS-CoV Urbani: 0.4
  Binding of serum 2 to linear peptides of protein X5 of SARS-CoV Urbani: 0.6
  Binding of serum 2 to looped/cyclic peptides of protein X5 of SARS-CoV Urbani: 0.6
  Binding of serum 6 to linear peptides of protein X5 of SARS-CoV Urbani: 0.8
  Binding of serum 6 to looped/cyclic peptides of protein X5 of SARS-CoV Urbani: 0.8
  Binding of serum 37 to linear peptides of protein X5 of SARS-CoV Urbani: 0.5
  Binding of serum 37 to looped/cyclic peptides of protein X5 of SARS-CoV Urbani: 0.6
  Binding of serum 62 to linear peptides of protein X5 of SARS-CoV Urbani: 0.4
  Binding of serum 62 to looped/cyclic peptides of protein X5 of SARS-CoV Urbani: 0.5
  Binding of serum London to linear peptides of protein X5 of SARS-CoV Urbani: 0.6
  Binding of serum London to looped/cyclic peptides of protein X5 of SARS-CoV Urbani: 1.0
  Binding of serum SARS-green to linear peptides of protein X5 of SARS-CoV Urbani: 0.1
  Binding of serum SARS-green to looped/cyclic peptides of protein X5 of SARS-CoV Urbani: 0.4
  Binding of serum SARS-yellow to linear peptides of protein X5 of SARS-CoV Urbani: 0.8
  Binding of serum SARS-yellow to looped/cyclic peptides of protein X5 of SARS-CoV Urbani: 0.3
[2]
  Rabbit serum linear peptides: 0.5
  Rabbit serum looped peptides: 0.6
[3]
  Binding of Control Serum Blood-Bank to Looped peptides: 0.7
  Binding of Control serum Blood-bank to linear peptides: 0.6
  Binding of Control serum LUMC to linear peptides: 0.8
  Binding of Control serum LUMC to looped peptides: 0.4

## AAGMEAQFLYLYALI
[1]
  Binding of serum 1a to linear peptides of protein X1 of SARS-CoV Urbani: 0.7
  Binding of serum 1a to looped/cyclic peptide (PEPSCAN-ELISA): 0.6
  Binding of serum 1b to linear peptides of protein X1 of SARS-CoV Urbani: 0.6
  Binding of serum 1b to looped/cyclic peptide (PEPSCAN-ELISA): 0.4
  Binding of serum 2 to linear peptides of protein X1 of SARS-CoV Urbani: 0.6
  Binding of serum 2 to looped/cyclic peptide (PEPSCAN-ELISA): 0.5
  Binding of serum 6 to linear peptides of protein X1 of SARS-CoV Urbani: 0.5
  Binding of serum 6 to looped/cyclic peptide (PEPSCAN-ELISA): 0.3
  Binding of serum 37 to linear peptides of protein X1 of SARS-CoV Urbani: 0.5
  Binding of serum 37 to looped/cyclic peptide (PEPSCAN-ELISA): 0.6
  Binding of serum 62 to linear peptides of protein X1 of SARS-CoV Urbani: 0.5
  Binding of serum 62 to looped/cyclic peptide (PEPSCAN-ELISA): 0.6
  Binding of serum London to linear peptides of protein X1 of SARS-CoV Urbani: 0.2
  Binding of serum London to looped/cyclic peptide (PEPSCAN-ELISA): 0.2
  Binding of serum SARS-green to linear peptides of protein X1 of SARS-CoV Urbani: 0.2
  Binding of serum SARS-green to looped/cyclic peptide (PEPSCAN-ELISA): 0.3
  Binding of serum SARS-yellow to linear peptides of protein X1 of SARS-CoV Urbani: 0.3
  Binding of serum SARS-yellow to looped/cyclic peptide (PEPSCAN-ELISA): 0.4
[2]
  Binding of a rabbit serum to linear peptides: 0.1
  Binding of a rabbit serum to looped peptides: 0.6
[3]
  Binding of Control Serum Blood-Bank to Looped peptides: 0.5
  Binding of Control serum Blood-bank to linear peptides: 0.5
  Binding of Control serum LUMC to linear peptides: 0.9
  Binding of Control serum LUMC to looped peptides: 0.7

## ACIVGLMWLSYFVAS
[1]
  Binding of serum 1a to linear peptides of protein M of SARS-CoV Urbani: 0.7
  Binding of serum 1a to looped/cyclic peptides of protein M of SARS-CoV Urbani: 0.6
  Binding of serum 1b to linear peptides of protein M of SARS-CoV Urbani: 0.5
  Binding of serum 1b to looped/cyclic peptides of protein M of SARS-CoV Urbani: 0.3
  Binding of serum 2 to linear peptides of protein M of SARS-CoV Urbani: 0.5
  Binding of serum 2 to looped/cyclic peptides of protein M of SARS-CoV Urbani: 0.5
  Binding of serum 6 to linear peptides of protein M of SARS-CoV Urbani: 0.4
  Binding of serum 6 to looped/cyclic peptides of protein M of SARS-CoV Urbani: 0.6
  Binding of serum 37 to linear peptides of protein M of SARS-CoV Urbani: 0.6
  Binding of serum 37 to looped/cyclic peptides of protein M of SARS-CoV Urbani: 0.5
  Binding of serum 62 to linear peptides of protein M of SARS-CoV Urbani: 0.7
  Binding of serum 62 to looped/cyclic peptides of protein M of SARS-CoV Urbani: 0.4
  Binding of serum London to linear peptides of protein M of SARS-CoV Urbani: 0.3
  Binding of serum London to looped/cyclic peptides of protein M of SARS-CoV Urbani: 0.2
  Binding of serum SARS-green to linear peptides of protein M of SARS-CoV Urbani: 0.2
  Binding of serum SARS-green to looped/cyclic peptides of protein M of SARS-CoV Urbani: 0.2
  Binding of serum SARS-yellow to linear peptides of protein M of SARS-CoV Urbani: 0.1
  Binding of serum SARS-yellow to looped/cyclic peptides of protein M of SARS-CoV Urbani: 0.4
[2]
  Rabbit serum linear peptides: 0.3
  Rabbit serum looped peptides: 0.8
[3]
  Binding of Control Serum Blood-Bank to Looped peptides of the protein M of SARS-CoV Urbani: 0.6
  Binding of Control serum Blood-bank to linear peptides of the protein M of SARS-CoV Urbani: 0.6
  Binding of Control serum LUMC to linear peptides of the protein M of SARS-CoV Urbani: 0.3
  Binding of Control serum LUMC to looped peptides of the protein M of SARS-CoV Urbani: 0.5

## ACRIIMRCWLCWKCK
[1]
  Recognition of the peptide by sera of SARS-CoV infected individuals, and form (linear, looped/cyclic) in which it is recognized: recognized in linear form
[2]
  Recognition of the peptide by the rabbit serum: recognized
[3]
  Binding of Control Serum Blood-Bank to Looped peptides: 0.1
  Binding of Control serum Blood-bank to linear peptides: 1.0
  Binding of Control serum LUMC to linear peptides: 0.8
  Binding of Control serum LUMC to looped peptides: 0.3

## YFVCWHTHNYDYCIP
[2]
  Binding of a rabbit serum to linear peptides: 0.1
  Binding of a rabbit serum to looped peptides: 0.6
[3]
  Binding of Control Serum Blood-Bank to Looped peptides: 0.6
  Binding of Control serum Blood-bank to linear peptides: 0.6
  Binding of Control serum LUMC to linear peptides: 0.7
  Binding of Control serum LUMC to looped peptides: 0.6

## YKLGASQRVGTDSGF
[2]
  Rabbit serum linear peptides: 0.4
  Rabbit serum looped peptides: 0.2
[3]
  Binding of Control Serum Blood-Bank to Looped peptides of the protein M of SARS-CoV Urbani: 0.7
  Binding of Control serum Blood-bank to linear peptides of the protein M of SARS-CoV Urbani: 0.7
  Binding of Control serum LUMC to linear peptides of the protein M of SARS-CoV Urbani: 0.4
  Binding of Control serum LUMC to looped peptides of the protein M of SARS-CoV Urbani: 0.9

## YQECVRGTTVLLKEP
[2]
  Rabbit serum linear peptides: 0.5
  Rabbit serum looped peptides: 0.5
[3]
  Binding of Control Serum Blood-Bank to Looped peptides: 0.9
  Binding of Control serum Blood-bank to linear peptides: 0.8
  Binding of Control serum LUMC to linear peptides: 0.7
  Binding of Control serum LUMC to looped peptides: 0.8

## YSEDRHSGVKDYVVV
[2]
  Binding of a rabbit serum to linear peptides: 0.1
  Binding of a rabbit serum to looped peptides: 0.4
[3]
  Binding of Control Serum Blood-Bank to Looped peptides: 0.7
  Binding of Control serum Blood-bank to linear peptides: 0.7
  Binding of Control serum LUMC to linear peptides: 0.6
  Binding of Control serum LUMC to looped peptides: 0.8

## YSELDDEEPMELDYP
[2]
  Rabbit serum linear peptides: 0.3
  Rabbit serum looped peptides: 0.3
[3]
  Binding of Control Serum Blood-Bank to Looped peptides of the protein X3 of SARS-CoV Urbani: 0.8
  Binding of Control serum Blood-bank to linear peptides of the protein X3 of SARS-CoV Urbani: 0.7
  Binding of Control serum LUMC to linear peptides of the protein X3 of SARS-CoV Urbani: 0.9
  Binding of Control serum LUMC to looped peptides of the protein X3 of SARS-CoV Urbani: 0.8
